Legend:
[1] = target: KRAS G12C (Homo sapiens, UniProt P01116+P62937, G12C); experiment: Disruption of BRAF RBD interaction with Ras (FRET / MOA assay, with Cyclophilin A); assay type: biochemical; conditions: read-out: KRAS G12C FRET data, IC50
Method in brief: (§1)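 Compound-driven ternary complex formation between nucleotide-loaded K-Ras and Cyclophilin A was measured as loss of BRAF RBD binding. Compounds (10-point 3-fold series, top 30 μM final) were incubated 3 h at 25 °C, then anti-His Eu-W1024 (10 nM) and anti-GST allophycocyanin (50 nM) added for 1.5 h. IC50 was taken from the TR-FRET ratio decrease versus DMSO.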

[2] = target: KRAS G12V (Homo sapiens, UniProt P01116+P62937, G12V); experiment: as above; assay type: biochemical; conditions: KRAS G12V; read-out: KRAS G12V FRET data IC50
KRAS G12V, sequence (P01116 1-169 isoform P01116-2 G12V limits assumed): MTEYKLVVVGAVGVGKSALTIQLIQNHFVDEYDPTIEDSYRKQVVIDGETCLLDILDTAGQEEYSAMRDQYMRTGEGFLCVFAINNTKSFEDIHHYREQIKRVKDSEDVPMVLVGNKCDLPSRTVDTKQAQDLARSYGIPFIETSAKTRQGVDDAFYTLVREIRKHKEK
KRAS G12V, sequence (P62937 whole entry): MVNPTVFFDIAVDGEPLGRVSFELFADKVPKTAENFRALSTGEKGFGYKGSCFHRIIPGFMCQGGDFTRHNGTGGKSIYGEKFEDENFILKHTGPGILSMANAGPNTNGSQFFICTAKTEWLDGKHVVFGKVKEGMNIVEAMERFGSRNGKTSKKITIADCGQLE
Method in brief: as §1

[3] = target: KRAS G13C (Homo sapiens, UniProt P01116+P62937, G13C); experiment: as above; assay type: biochemical; conditions: read-out: KRAS G13C FRET data, IC50
KRAS G13C, sequence (P01116 1-169 isoform P01116-2 G13C): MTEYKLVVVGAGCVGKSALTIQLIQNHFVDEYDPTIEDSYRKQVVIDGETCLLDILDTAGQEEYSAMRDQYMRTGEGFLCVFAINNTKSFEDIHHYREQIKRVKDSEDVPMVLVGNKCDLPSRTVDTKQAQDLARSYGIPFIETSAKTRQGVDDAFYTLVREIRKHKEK
KRAS G13C, sequence (P62937 whole entry): as the sequence (P62937 whole entry) above
Method in brief: as §1

[4] = target: NRAS G12C (Homo sapiens, UniProt P01111+P62937, G12C); experiment: as above; assay type: biochemical; conditions: NRAS G12C; read-out: NRAS G12C FRET data IC50
NRAS G12C, sequence (P01111 whole entry G12C): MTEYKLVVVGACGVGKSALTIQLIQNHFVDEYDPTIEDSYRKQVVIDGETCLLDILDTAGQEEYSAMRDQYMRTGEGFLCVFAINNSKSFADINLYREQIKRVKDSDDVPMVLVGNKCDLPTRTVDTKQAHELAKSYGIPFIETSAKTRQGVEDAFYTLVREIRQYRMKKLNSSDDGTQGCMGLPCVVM
NRAS G12C, sequence (P62937 whole entry): as the sequence (P62937 whole entry) above

[5] = target: KRAS G13D (Homo sapiens, UniProt P01116+P62937, G13D); experiment: as above; assay type: biochemical; conditions: KRAS G13D; read-out: KRAS G13D FRET data IC50
KRAS G13D, sequence (P01116 1-169 isoform P01116-2 G13D limits assumed): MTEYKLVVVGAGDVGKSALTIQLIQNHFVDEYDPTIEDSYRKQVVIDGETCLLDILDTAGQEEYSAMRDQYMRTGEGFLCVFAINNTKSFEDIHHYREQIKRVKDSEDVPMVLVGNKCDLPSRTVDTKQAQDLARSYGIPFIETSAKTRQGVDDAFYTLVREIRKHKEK
KRAS G13D, sequence (P62937 whole entry): as the sequence (P62937 whole entry) above
Method in brief: as §1

[6] = target: KRAS WT (Homo sapiens, UniProt P01116+P62937); experiment: as above; assay type: biochemical; conditions: KRAS WT; read-out: KRAS WT FRET data IC50
KRAS WT, sequence (P01116 1-169 isoform P01116-2 limits assumed): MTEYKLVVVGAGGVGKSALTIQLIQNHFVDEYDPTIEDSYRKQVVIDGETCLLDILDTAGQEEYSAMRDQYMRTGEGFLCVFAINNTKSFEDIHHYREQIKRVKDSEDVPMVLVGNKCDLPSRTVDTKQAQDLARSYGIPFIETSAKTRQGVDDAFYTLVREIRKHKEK
KRAS WT, sequence (P62937 whole entry): as the sequence (P62937 whole entry) above
Method in brief: as §1

[7] = target: KRAS G12D (Homo sapiens, UniProt P01116+P62937, G12D); experiment: as above; assay type: biochemical; conditions: read-out: KRAS G12D FRET data, IC50
KRAS G12D, sequence (P01116 1-169 isoform P01116-2 G12D limits assumed): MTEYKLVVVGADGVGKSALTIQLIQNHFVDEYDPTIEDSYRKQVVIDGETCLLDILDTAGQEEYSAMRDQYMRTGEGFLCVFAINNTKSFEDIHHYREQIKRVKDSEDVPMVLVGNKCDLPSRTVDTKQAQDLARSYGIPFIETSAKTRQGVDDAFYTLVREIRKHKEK
KRAS G12D, sequence (P62937 whole entry): as the sequence (P62937 whole entry) above
Method in brief: as §1

[8] = target: KRAS G12S (Homo sapiens, UniProt P01116+P62937, G12S); experiment: as above; assay type: biochemical; conditions: read-out: KRAS G12S FRET data, IC50
KRAS G12S, sequence (P01116 1-169 isoform P01116-2 G12S limits assumed): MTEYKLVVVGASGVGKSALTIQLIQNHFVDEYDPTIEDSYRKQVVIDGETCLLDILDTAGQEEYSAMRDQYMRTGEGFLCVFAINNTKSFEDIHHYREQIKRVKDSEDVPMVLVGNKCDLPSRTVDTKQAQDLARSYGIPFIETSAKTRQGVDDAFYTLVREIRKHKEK
KRAS G12S, sequence (P62937 whole entry): as the sequence (P62937 whole entry) above
Method in brief: as §1

[9] = test system: NCI-H358 (K-Ras G12C); experiment: CellTiter-Glo cell viability assay, 5-day treatment; assay type: cell-based; conditions: Homo sapiens, NCI-H358, 120 h, 5-day treatment; read-out: H358 Cell Viability assay data (K-Ras G12C, IC50)
Method in brief: (§2)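 Five-day compound treatment of plated cells; luminescent read after ~30 min at RT. Percent-of-DMSO data fit to a four-parameter logistic model.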

[10] = test system: Capan-1 (K-Ras G12V); experiment: as above; assay type: cell-based; conditions: Homo sapiens, CAPAN-1, 120 h, 5-day treatment; read-out: Capan-1 Cell Viability assay data (K-Ras G12V, IC50)
Method in brief: as §2

KRAS G12C, sequence (P01116 1-169 isoform P01116-2 G12C): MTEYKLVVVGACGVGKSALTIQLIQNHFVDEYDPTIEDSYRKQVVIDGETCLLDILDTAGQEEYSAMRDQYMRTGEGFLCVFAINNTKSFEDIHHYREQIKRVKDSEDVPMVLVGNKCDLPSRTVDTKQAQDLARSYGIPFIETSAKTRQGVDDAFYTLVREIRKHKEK
KRAS G12C, sequence (P62937 whole entry): as the sequence (P62937 whole entry) above

Row | SMILES | IC50 [1] [µM] | IC50 [2] [µM] | IC50 [3] [µM] | IC50 [4] [µM] | IC50 [5] [µM] | IC50 [6] [µM] | IC50 [7] [µM] | IC50 [8] [µM] | IC50 [9] [µM] | IC50 [10] [µM]
1 | CCn1c(-c2cccnc2[C@H](C)OC)c2c3cc(ccc31)-c1cc(O)cc(c1)C[C@H](NC(=O)[C@H](C(C)C)N(C)C(=O)[C@H]1CCN(C(=O)[C@H]3CCCN3)C1)C(=O)N1CCC[C@H](N1)C(=O)OCC(C)(C)C2 [Example A378] | 0.01 to 0.1 | 0.01 to 0.1 | 0.01 to 0.1 | 0.01 to 0.1 | 0.01 to 0.1 | 0.01 to 0.1 | 0.01 to 0.1 | 0.01 to 0.1 | 0.1 to 1 | 1 to 10
2 | CCn1c(-c2cnccc2COC)c2c3cc(ccc31)-c1cc(O)cc(c1)C[C@H](NC(=O)[C@H](C(C)C)N(C)C(=O)C1C[C@@H]1C)C(=O)N1CCC[C@H](N1)C(=O)OCC(C)(C)C2 (stereo partly drawn) [Example A19] | 0.01 to 0.1 | 0.1 to 1 | 0.1 to 1 | 0.1 to 1 | 0.1 to 1 | 0.1 to 1 | 1 to 10 | 0.1 to 1 | 0.1 to 1 | 0.1 to 1
3 | CCn1c(-c2cccnc2[C@H](C)OC)c2c3cc(ccc31)-c1csc(n1)C[C@H](NC(=O)[C@H](C(C)C)N(C)C(=O)N(C)CC(C)C)C(=O)N1CCC[C@H](N1)C(=O)OCC(C)(C)C2 [Example A332] | 0.1 to 1 | 0.1 to 1 | 0.1 to 1 | 0.1 to 1 | 0.1 to 1 | 0.1 to 1 | 0.1 to 1 | 0.1 to 1 | 0.1 to 1 | 0.1 to 1
4 | CCn1c(-c2cnccc2COC)c2c3cc(ccc31)-c1cc(O)cc(c1)C[C@H](NC(=O)[C@H](C(C)C)N(C)C(=O)[C@@H]1CCOC1)C(=O)N1CCC[C@H](N1)C(=O)OCC(C)(C)C2 [Example A94] | 0.1 to 1 | 0.1 to 1 | 0.1 to 1 | 0.1 to 1 | 0.1 to 1 | 0.1 to 1 | 1 to 10 | 0.1 to 1 | 0.1 to 1 | 0.1 to 1
5 | CCn1c(-c2cnccc2COC)c2c3cc(ccc31)-c1cc(O)cc(c1)C[C@H](NC(=O)[C@H](C(C)C)N(C)C(=O)OC1CN(C)C1)C(=O)N1CCC[C@H](N1)C(=O)OCC(C)(C)C2 [Example A101] | 0.1 to 1 | 1 to 10 | 0.01 to 0.1 | 0.1 to 1 | 0.1 to 1 | 0.1 to 1 | 0.1 to 1 | 0.1 to 1 | 1 to 10 | 1 to 10
6 | CCN(CC)C1CN(C(=O)N(C)[C@H](C(=O)N[C@H]2Cc3nc(cs3)-c3ccc4c(c3)c(c(-c3cccnc3[C@H](C)OC)n4CC)CC(C)(C)COC(=O)[C@@H]3CCCN(N3)C2=O)C(C)C)C1 [Example A319] | 0.1 to 1 | 0.1 to 1 | 0.1 to 1 | 0.01 to 0.1 | 0.1 to 1 | 0.1 to 1 | 1 to 10 | 0.1 to 1 | 0.01 to 0.1 | 0.01 to 0.1
